TGI data for four compounds are collected here from PubChem BioAssay (NCI).

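All cell lines were grown in 96-well plates and treated with compound for 48 hours. At the TGI there is no net growth.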

The test system of the first assay is ACHN renal. Description: NCI-60 cell line screen, 48 h.
The compound `Cn1c(=O)c2c(nc3n2CC(=O)N3CCCCl)n(C)c1=O` displayed a TGI greater than 100 µM.
Still for that read-out and setting: then `C[n+]1ccc(/C2=C3\C=CC(=N3)/C(c3cc[n+](C)cc3)=c3/cc/c([nH]3)=C(\c3cc[n+](C)cc3)C3=N/C(=C(/c4cc[n+](C)cc4)C4C=CC2N4)C=C3)cc1`, with greater than 100 µM; and `CCCCn1c(N)c(-c2nc3ccccc3o2)sc1=S`, with 23.3 µM.

In another assay the test system is UACC-62 melanoma. Description: NCI-60 cell line screen, 48 h.
`O=[N+]([O-])c1cccc2nnccc12`: the TGI was 34.2 µM.
Same read-out and setting: as for `Cn1c(=O)c2c(nc3n2CC(=O)N3CCCCl)n(C)c1=O`, the figure is greater than 100 µM; as for `C[n+]1ccc(/C2=C3\C=CC(=N3)/C(c3cc[n+](C)cc3)=c3/cc/c([nH]3)=C(\c3cc[n+](C)cc3)C3=N/C(=C(/c4cc[n+](C)cc4)C4C=CC2N4)C=C3)cc1`, greater than 100 µM; as for `CCCCn1c(N)c(-c2nc3ccccc3o2)sc1=S`, 31.9 µM.

In another assay the test system is OVCAR-8 ovarian. Description: NCI-60 cell line screen, 48 h.
`O=[N+]([O-])c1cccc2nnccc12` showed a TGI greater than 100 µM.
In the case of `Cn1c(=O)c2c(nc3n2CC(=O)N3CCCCl)n(C)c1=O`, the TGI was greater than 100 µM.
The same measure, in the same setting: as for `C[n+]1ccc(/C2=C3\C=CC(=N3)/C(c3cc[n+](C)cc3)=c3/cc/c([nH]3)=C(\c3cc[n+](C)cc3)C3=N/C(=C(/c4cc[n+](C)cc4)C4C=CC2N4)C=C3)cc1`, the figure is greater than 100 µM; as for `CCCCn1c(N)c(-c2nc3ccccc3o2)sc1=S`, 37.7 µM.

In a further assay the test system is SK-OV-3 ovarian. As to the kind of experiment: NCI-60 cell line screen, 48 h.
For the compound `O=[N+]([O-])c1cccc2nnccc12`, the TGI is greater than 100 µM.
`Cn1c(=O)c2c(nc3n2CC(=O)N3CCCCl)n(C)c1=O` had a TGI greater than 100 µM.
`C[n+]1ccc(/C2=C3\C=CC(=N3)/C(c3cc[n+](C)cc3)=c3/cc/c([nH]3)=C(\c3cc[n+](C)cc3)C3=N/C(=C(/c4cc[n+](C)cc4)C4C=CC2N4)C=C3)cc1` had a TGI greater than 100 µM.
The same measure, in the same setting: as for `CCCCn1c(N)c(-c2nc3ccccc3o2)sc1=S`, the figure is 40.8 µM.

For another assay, the system named is HCC-2998 colon. Description: NCI-60 cell line screen, 48 h.
`Cn1c(=O)c2c(nc3n2CC(=O)N3CCCCl)n(C)c1=O` displayed a TGI greater than 100 µM.
The same measure, in the same setting: then `C[n+]1ccc(/C2=C3\C=CC(=N3)/C(c3cc[n+](C)cc3)=c3/cc/c([nH]3)=C(\c3cc[n+](C)cc3)C3=N/C(=C(/c4cc[n+](C)cc4)C4C=CC2N4)C=C3)cc1`, with greater than 100 µM; and `CCCCn1c(N)c(-c2nc3ccccc3o2)sc1=S`, with greater than 100 µM.

The next assay deals with IGROV1 ovarian. Description: NCI-60 cell line screen, 48 h.
Take `O=[N+]([O-])c1cccc2nnccc12`: the TGI is greater than 100 µM.
On to `Cn1c(=O)c2c(nc3n2CC(=O)N3CCCCl)n(C)c1=O`, for which the TGI was greater than 100 µM.
Still for that read-out and setting: as for `C[n+]1ccc(/C2=C3\C=CC(=N3)/C(c3cc[n+](C)cc3)=c3/cc/c([nH]3)=C(\c3cc[n+](C)cc3)C3=N/C(=C(/c4cc[n+](C)cc4)C4C=CC2N4)C=C3)cc1`, the figure is greater than 100 µM.
In turn, `CCCCn1c(N)c(-c2nc3ccccc3o2)sc1=S` yielded a TGI of 44.1 µM.

For another assay, the system named is KM12 colon. As to the kind of experiment: NCI-60 cell line screen, 48 h.
As to `O=[N+]([O-])c1cccc2nnccc12`, the TGI is greater than 100 µM.
With `Cn1c(=O)c2c(nc3n2CC(=O)N3CCCCl)n(C)c1=O`, the TGI is greater than 100 µM.
As to `C[n+]1ccc(/C2=C3\C=CC(=N3)/C(c3cc[n+](C)cc3)=c3/cc/c([nH]3)=C(\c3cc[n+](C)cc3)C3=N/C(=C(/c4cc[n+](C)cc4)C4C=CC2N4)C=C3)cc1`, the TGI is greater than 100 µM.
The same measure, in the same setting: then `CCCCn1c(N)c(-c2nc3ccccc3o2)sc1=S`, with greater than 100 µM.

A further assay relates to K-562 leukemia. Description: NCI-60 cell line screen, 48 h.
Turning to `O=[N+]([O-])c1cccc2nnccc12`, the TGI was greater than 100 µM.
The same measure, in the same setting: as for `Cn1c(=O)c2c(nc3n2CC(=O)N3CCCCl)n(C)c1=O`, the figure is greater than 100 µM.
The same measure, in the same setting: then `C[n+]1ccc(/C2=C3\C=CC(=N3)/C(c3cc[n+](C)cc3)=c3/cc/c([nH]3)=C(\c3cc[n+](C)cc3)C3=N/C(=C(/c4cc[n+](C)cc4)C4C=CC2N4)C=C3)cc1`, with greater than 100 µM; and `CCCCn1c(N)c(-c2nc3ccccc3o2)sc1=S`, with greater than 100 µM.

The subject of another assay is MALME-3M melanoma. As to the kind of experiment: NCI-60 cell line screen, 48 h.
Consider `O=[N+]([O-])c1cccc2nnccc12`, for which the TGI was found to be 26.9 µM.
On the same count and under the same terms, as for `C[n+]1ccc(/C2=C3\C=CC(=N3)/C(c3cc[n+](C)cc3)=c3/cc/c([nH]3)=C(\c3cc[n+](C)cc3)C3=N/C(=C(/c4cc[n+](C)cc4)C4C=CC2N4)C=C3)cc1`, the figure is greater than 100 µM; as for `CCCCn1c(N)c(-c2nc3ccccc3o2)sc1=S`, 40.2 µM.

For a further assay, the system named is MCF7 breast. Description: NCI-60 cell line screen, 48 h.
Consider `O=[N+]([O-])c1cccc2nnccc12`, for which the TGI is greater than 100 µM.
Same read-out and setting: then `Cn1c(=O)c2c(nc3n2CC(=O)N3CCCCl)n(C)c1=O`, with greater than 100 µM; and `C[n+]1ccc(/C2=C3\C=CC(=N3)/C(c3cc[n+](C)cc3)=c3/cc/c([nH]3)=C(\c3cc[n+](C)cc3)C3=N/C(=C(/c4cc[n+](C)cc4)C4C=CC2N4)C=C3)cc1`, with greater than 100 µM.
`CCCCn1c(N)c(-c2nc3ccccc3o2)sc1=S` registered a TGI greater than 100 µM.

In a further assay the test system is SF-295 CNS. Description: NCI-60 cell line screen, 48 h.
As for `O=[N+]([O-])c1cccc2nnccc12`, the TGI is greater than 100 µM.
On the same count and under the same terms, then `Cn1c(=O)c2c(nc3n2CC(=O)N3CCCCl)n(C)c1=O`, with greater than 100 µM; and `C[n+]1ccc(/C2=C3\C=CC(=N3)/C(c3cc[n+](C)cc3)=c3/cc/c([nH]3)=C(\c3cc[n+](C)cc3)C3=N/C(=C(/c4cc[n+](C)cc4)C4C=CC2N4)C=C3)cc1`, with greater than 100 µM; and `CCCCn1c(N)c(-c2nc3ccccc3o2)sc1=S`, with 28.9 µM.

The next assay relates to PC-3 prostate. Description: NCI-60 cell line screen, 48 h.
For `O=[N+]([O-])c1cccc2nnccc12`, the TGI was greater than 100 µM.
On the same count and under the same terms, then `Cn1c(=O)c2c(nc3n2CC(=O)N3CCCCl)n(C)c1=O`, with greater than 100 µM; and `CCCCn1c(N)c(-c2nc3ccccc3o2)sc1=S`, with greater than 100 µM.

The subject of another assay is OVCAR-5 ovarian. Description: NCI-60 cell line screen, 48 h.
`O=[N+]([O-])c1cccc2nnccc12` registered a TGI greater than 100 µM.
Same read-out and setting: then `Cn1c(=O)c2c(nc3n2CC(=O)N3CCCCl)n(C)c1=O`, with greater than 100 µM.
Same read-out and setting: then `C[n+]1ccc(/C2=C3\C=CC(=N3)/C(c3cc[n+](C)cc3)=c3/cc/c([nH]3)=C(\c3cc[n+](C)cc3)C3=N/C(=C(/c4cc[n+](C)cc4)C4C=CC2N4)C=C3)cc1`, with greater than 100 µM.
Still for that read-out and setting: then `CCCCn1c(N)c(-c2nc3ccccc3o2)sc1=S`, with 53.6 µM.

A further assay deals with OVCAR-3 ovarian. As to the kind of experiment: NCI-60 cell line screen, 48 h.
`Cn1c(=O)c2c(nc3n2CC(=O)N3CCCCl)n(C)c1=O`: the TGI was greater than 100 µM.
On the same count and under the same terms, then `C[n+]1ccc(/C2=C3\C=CC(=N3)/C(c3cc[n+](C)cc3)=c3/cc/c([nH]3)=C(\c3cc[n+](C)cc3)C3=N/C(=C(/c4cc[n+](C)cc4)C4C=CC2N4)C=C3)cc1`, with greater than 100 µM; and `CCCCn1c(N)c(-c2nc3ccccc3o2)sc1=S`, with 33.9 µM.

The next assay deals with DU-145 prostate. Description: NCI-60 cell line screen, 48 h.
Consider `O=[N+]([O-])c1cccc2nnccc12`, for which the TGI is greater than 100 µM.
The same measure, in the same setting: as for `Cn1c(=O)c2c(nc3n2CC(=O)N3CCCCl)n(C)c1=O`, the figure is greater than 100 µM; as for `C[n+]1ccc(/C2=C3\C=CC(=N3)/C(c3cc[n+](C)cc3)=c3/cc/c([nH]3)=C(\c3cc[n+](C)cc3)C3=N/C(=C(/c4cc[n+](C)cc4)C4C=CC2N4)C=C3)cc1`, greater than 100 µM.
